Experimental data taken from patent publication US20230131899A1, “INHIBITORS OF MICROBIALLY INDUCED AMYLOID” (Axial Therapeutics, Inc., priority 2020, published 2023).
Like-named read-outs stand apart in the source and are kept apart here.

Biological target: T1, human α-synuclein (Homo sapiens, UniProt P37840)
T1 construct: the full-length gene for untagged human α-synuclein was inserted; made in house; host or cells: E. coli BL21(DE3), plasmid derived from pT7 or pET11a
Assay: Cell-free Thioflavin T assay of α-synuclein aggregation (αSyn ThT Assay)
Assay type: biochemical
Details: αSyn 50 μM, compounds at 100 μM
Outline: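 Untagged full-length human α-synuclein from E. coli, 50 μM, with 20-40 μM ThT, 1% DMSO, compound at 20-100 μM and a glass bead, 37° C. with shaking. Fluorescence (ex 438/em 495 nm) read hourly to 73 h. Compound-only background subtracted and values normalised to vehicle at 36-72 h or final timepoint, giving % inhibition.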

[1] = mean % inhibition of αSyn aggregation relative to DMSO control, read-out: αSyn ThT Assay % Inhibition
[2] = class symbol, read-out: αSyn ThT Assay % Inhibition (activity range)

Row | Structure (SMILES) | inhibition at 100 µM [1] [%] | inhibition at 100 µM [2] [%]
1 | O=C(O)C1CSc2c(-c3cccc(C(F)(F)F)c3)c(Cc3cccc4ccccc34)cc(=O)n21 (single isomer, unassigned) [Compound 011a, 7-(naphthalen-1-ylmethyl)-5-oxo-8-(3-(trifluoromethyl)phenyl)-2,3-dihydro-5H-thiazolo[3,2-a]pyridine-3-carboxylic acid] | 13 | 11 to 30
2 | COc1ccc(CN2C[C@@H](C(=O)O)n3c(c(-c4cccc(C(F)(F)F)c4)c(Cc4cccc5ccccc45)cc3=O)S2(=O)=O)cc1 (single isomer, unassigned) [Compound 026a] | 51 | 31 to 60
3 | O=C(O)C1CN(CCCO)S(=O)(=O)c2c(-c3cccc(C(F)(F)F)c3)c(Cc3cccc4ccccc34)c(NC3CCCC3)c(=O)n21 (centres unmarked) [Compound 120, 7-(cyclopentylamino)-2-(3-hydroxypropyl)-8-(naphthalen-1-ylmethyl)-6-oxo-9-(3-(trifluoromethyl)phenyl)-3,4-dihydro-2H,6H-pyrido[1,2-e][1,2,5]thiadiazine-4-carboxylic acid 1,1-dioxide] | 40 | 31 to 60
4 | O=C(O)C1CSc2c(-c3cccc(C(F)(F)F)c3)c(Cc3cccc4ccccc34)nc(=O)n21 (centres unmarked) [Compound 022, 7-(naphthalen-1-ylmethyl)-5-oxo-8-(3-(trifluoromethyl)phenyl)-2,3-dihydro-5H-thiazolo[3,2-c]pyrimidine-3-carboxylic acid] | 49 | 31 to 60
5 | CN1CC(C(=O)O)n2c(c(-c3cccc(C(F)(F)F)c3)c(Cc3cccc4ccccc34)c(N)c2=O)S1(=O)=O (centres unmarked) [Compound 074, 7-amino-2-methyl-8-(naphthalen-1-ylmethyl)-6-oxo-9-(3-(trifluoromethyl)phenyl)-3,4-dihydro-2H,6H-pyrido[1,2-e][1,2,5]thiadiazine-4-carboxylic acid 1,1-dioxide] | 38 | 31 to 60
6 | O=C(O)CN1CC(C(=O)O)n2c(c(-c3cccc(C(F)(F)F)c3)c(Cc3cccc4ccccc34)cc2=O)S1(=O)=O (centres unmarked) [Compound 018, 2-(carboxymethyl)-8-(naphthalen-1-ylmethyl)-6-oxo-9-(3-(trifluoromethyl)phenyl)-3,4-dihydro-2H,6H-pyrido[1,2-e][1,2,5]thiadiazine-4-carboxylic acid 1,1-dioxide] | 22 | 11 to 30
7 | CN1CC(C(=O)O)n2c(c(-c3cccc(C(F)(F)F)c3)c(Cc3cccc4ccccc34)c(C(N)=O)c2=O)S1(=O)=O (centres unmarked) [Compound 109, 7-carbamoyl-2-methyl-8-(naphthalen-1-ylmethyl)-6-oxo-9-(3-(trifluoromethyl)phenyl)-3,4-dihydro-2H,6H-pyrido[1,2-e][1,2,5]thiadiazine-4-carboxylic acid 1,1-dioxide] | 99 | > 60
8 | CCCN1CC(C(=O)O)n2c(c(-c3cccc(C(F)(F)F)c3)c(Cc3cccc4ccccc34)c(NC3CCCC3)c2=O)S1(=O)=O (centres unmarked) [Compound 126, 7-(cyclopentylamino)-8-(naphthalen-1-ylmethyl)-6-oxo-2-propyl-9-(3-(trifluoromethyl)phenyl)-3,4-dihydro-2H,6H-pyrido[1,2-e][1,2,5]thiadiazine-4-carboxylic acid 1,1-dioxide] | 32 | 31 to 60
9 | CN1CC(C(=O)O)n2c1c(-c1cccc(C(F)(F)F)c1)c(Cc1cccc3ccccc13)c(Br)c2=O (centres unmarked) [Compound 119, 6-bromo-1-methyl-7-(naphthalen-1-ylmethyl)-5-oxo-8-(3-(trifluoromethyl)phenyl)-1,2,3,5-tetrahydroimidazo[1,2-a]pyridine-3-carboxylic acid] | 41 | 31 to 60
10 | O=C(O)C1C[S+]([O-])c2c(-c3cccc(C(F)(F)F)c3)c(Cc3cccc4ccccc34)cc(=O)n21 (racemic) [Compound 027b, 7-(naphthalen-1-ylmethyl)-5-oxo-8-(3-(trifluoromethyl)phenyl)-2,3-dihydro-5H-thiazolo[3,2-a]pyridine-3-carboxylic acid 1-oxide] | 4 | -10 to 10
11 | CCCN1CC(C(=O)O)n2c(c(-c3cccc(C(F)(F)F)c3)c(Cc3cccc4ccccc34)c(NC3CCOCC3)c2=O)S1(=O)=O (centres unmarked) [Compound 127, 8-(naphthalen-1-ylmethyl)-6-oxo-2-propyl-7-((tetrahydro-2H-pyran-4-yl)amino)-9-(3-(trifluoromethyl)phenyl)-3,4-dihydro-2H,6H-pyrido[1,2-e][1,2,5] thiadiazine-4-carboxylic acid 1,1-dioxide] | 67 | > 60
12 | O=C(O)C1CN(CCCCO)S(=O)(=O)c2c(-c3cccc(C(F)(F)F)c3)c(Cc3cccc4ccccc34)c(NC3CCCC3)c(=O)n21 (centres unmarked) [Compound 121, 7-(cyclopentylamino)-2-(4-hydroxybutyl)-8-(naphthalen-1-ylmethyl)-6-oxo-9-(3-(trifluoromethyl)phenyl)-3,4-dihydro-2H,6H-pyrido[1,2-e][1,2,5]thiadiazine-4-carboxylic acid 1,1-dioxide] | 27 | 11 to 30
13 | CC(C)N1CC(C(=O)O)n2c(c(-c3cccc(C(F)(F)F)c3)c(Cc3cccc4ccccc34)c(NC3CCCC3)c2=O)S1(=O)=O (centres unmarked) [Compound 123, 7-(cyclopentylamino)-2-isopropyl-8-(naphthalen-1-ylmethyl)-6-oxo-9-(3-(trifluoromethyl)phenyl)-3,4-dihydro-2H,6H-pyrido[1,2-e][1,2,5]thiadiazine-4-carboxylic acid 1,1-dioxide] | 76 | > 60
14 | CN1CC(C(N)=O)n2c(c(-c3cccc(C(F)(F)F)c3)c(Cc3cccc4ccccc34)cc2=O)S1(=O)=O (centres unmarked) [Compound 030, 2-methyl-8-(naphthalen-1-ylmethyl)-6-oxo-9-(3-(trifluoromethyl)phenyl)-3,4-dihydro-2H,6H-pyrido[1,2-e][1,2,5]thiadiazine-4-carboxamide 1,1-dioxide] | 4 | -10 to 10
15 | CN(C)CCN1CC(C(=O)O)n2c(c(-c3cccc(C(F)(F)F)c3)c(Cc3cccc4ccccc34)cc2=O)S1(=O)=O (centres unmarked) [Compound 017, 2-(2-(dimethylamino)ethyl)-8-(naphthalen-1-ylmethyl)-6-oxo-9-(3-(trifluoromethyl)phenyl)-3,4-dihydro-2H,6H-pyrido[1,2-e][1,2,5]thiadiazine-4-carboxylic acid 1,1-dioxide] | 53 | 31 to 60
16 | CCc1c(Cc2cccc3ccccc23)c(-c2cccc(C(F)(F)F)c2)c2n(c1=O)C(C(=O)O)CN(C1CCCCC1)S2(=O)=O (centres unmarked) [Compound 116, 2-cyclohexyl-7-ethyl-8-(naphthalen-1-ylmethyl)-6-oxo-9-(3-(trifluoromethyl)phenyl)-3,4-dihydro-2H,6H-pyrido[1,2-e][1,2,5]thiadiazine-4-carboxylic acid 1,1-dioxide] | 47 | 31 to 60
17 | O=C(O)C1CSc2c(-c3cccc(C(F)(F)F)c3)c(Cc3cccc4ccccc34)cc(=O)n21 (racemic) [Compound 011, 7-(naphthalen-1-ylmethyl)-5-oxo-8-(3-(trifluoromethyl)phenyl)-2,3-dihydro-5H-thiazolo[3,2-a]pyridine-3-carboxylic acid] | 56 | 31 to 60
18 | O=C(O)[C@@H]1CS(=O)(=O)c2c(-c3cccc(C(F)(F)F)c3)c(Cc3cccc4ccccc34)cc(=O)n21 (single isomer, unassigned) [Compound 010a, 7-(naphthalen-1-ylmethyl)-5-oxo-8-(3-(trifluoromethyl)phenyl)-2,3-dihydro-5H-thiazolo[3,2-a]pyridine-3-carboxylic acid 1,1-dioxide] | 41 | 31 to 60
19 | CCN1CC(C(=O)O)n2c(c(-c3cccc(C(F)(F)F)c3)c(Cc3cccc4ccccc34)cc2=O)S1(=O)=O (single isomer, unassigned) [Compound 015a, 2-ethyl-8-(naphthalen-1-ylmethyl)-6-oxo-9-(3-(trifluoromethyl)phenyl)-3,4-dihydro-2H,6H-pyrido[1,2-e][1,2,5]thiadiazine-4-carboxylic acid 1,1-dioxide] | 62 | > 60
20 | CCCCCN1CC(C(=O)O)n2c(c(-c3cccc(C(F)(F)F)c3)c(Cc3cccc4ccccc34)cc2=O)S1(=O)=O (racemic) [Compound 025, 8-(naphthalen-1-ylmethyl)-6-oxo-2-pentyl-9-(3-(trifluoromethyl)phenyl)-3,4-dihydro-2H,6H-pyrido[1,2-e][1,2,5]thiadiazine-4-carboxylic acid 1,1-dioxide] | 59 | 31 to 60
21 | CCCN1CC(C(=O)O)n2c(c(-c3cccc(C(F)(F)F)c3)c(Cc3cccc4ccccc34)cc2=O)S1(=O)=O (racemic) [Compound 016, 8-(naphthalen-1-ylmethyl)-6-oxo-2-propyl-9-(3-(trifluoromethyl)phenyl)-3,4-dihydro-2H,6H-pyrido[1,2-e][1,2,5]thiadiazine-4-carboxylic acid 1,1-dioxide] | 68 | > 60
22 | O=C(O)[C@H]1CS(=O)(=O)c2c(-c3cccc(C(F)(F)F)c3)c(Cc3cccc4ccccc34)cc(=O)n21 (single isomer, unassigned) [Compound 010b, 7-(naphthalen-1-ylmethyl)-5-oxo-8-(3-(trifluoromethyl)phenyl)-2,3-dihydro-5H-thiazolo[3,2-a]pyridine-3-carboxylic acid 1,1-dioxide] | 35 | 31 to 60
